According to ChEMBL document CHEMBL1201862, “PubChem BioAssay data set” (2004):
Values joined by “and” are separate entries in the source; they are usually repeats but may differ in a detail not shown here. Identical values can stand only once. Active and inactive are the calls of the source.

Tests used:
[1] = target: Induced myeloid leukemia cell differentiation protein Mcl-1 (Homo sapiens, UniProt Q07820); format: functional
[2] = target: T1, Mannose-6-phosphate isomerase (Homo sapiens, UniProt P34949); test: MPI inhibition at elevated mannose 6-phosphate – biochemical, fluorescence intensity, high mannose 6-phosphate, primary screen (AID 1220)
T1 sequence (P34949 whole entry): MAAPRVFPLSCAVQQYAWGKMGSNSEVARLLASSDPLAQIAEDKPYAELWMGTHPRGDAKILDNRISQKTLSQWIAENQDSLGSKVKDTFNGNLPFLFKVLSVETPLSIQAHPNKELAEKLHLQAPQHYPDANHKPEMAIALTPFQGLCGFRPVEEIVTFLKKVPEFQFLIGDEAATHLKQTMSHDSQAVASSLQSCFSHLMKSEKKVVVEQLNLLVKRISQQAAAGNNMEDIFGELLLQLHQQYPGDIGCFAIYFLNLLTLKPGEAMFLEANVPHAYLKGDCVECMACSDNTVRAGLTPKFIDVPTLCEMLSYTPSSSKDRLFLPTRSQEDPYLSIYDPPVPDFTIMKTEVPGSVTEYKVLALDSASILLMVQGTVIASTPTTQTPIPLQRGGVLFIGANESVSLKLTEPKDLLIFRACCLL

[3] = target: DNA dC->dU-editing enzyme APOBEC-3A (Homo sapiens, UniProt P31941); test: A3A deaminase inhibition for selectivity – biochemical, dose response (AID 504722); format: functional
[4] = target: Glucose-6-phosphate 1-dehydrogenase (Homo sapiens, UniProt P11413); test: inhibition of Homo sapiens G6PD, dose series – biochemical, fluorescence, selectivity assay for P. falciparum G6PD inhibitor project, dose response (AID 504792); format: functional
[5] = target: DNA dC->dU-editing enzyme APOBEC-3G (Homo sapiens, UniProt Q9HC16); test: Dose Response confirmation of small molecule APOBEC3G DNA Deaminase Inhibitors via a fluorescence-based single-stranded DNA deaminase assay. [Related pubchem assays (depositor defined):AID493012, AID493028]; format: functional
Hexokinase HKDC1 = target: T2, Hexokinase HKDC1 (Homo sapiens, UniProt Q2TB90); test: inhibition of HKDC1 glucose phosphorylation – biochemical, W721R variant, dose response (AID 504729); format: functional
T2 sequence (Q2TB90 whole entry): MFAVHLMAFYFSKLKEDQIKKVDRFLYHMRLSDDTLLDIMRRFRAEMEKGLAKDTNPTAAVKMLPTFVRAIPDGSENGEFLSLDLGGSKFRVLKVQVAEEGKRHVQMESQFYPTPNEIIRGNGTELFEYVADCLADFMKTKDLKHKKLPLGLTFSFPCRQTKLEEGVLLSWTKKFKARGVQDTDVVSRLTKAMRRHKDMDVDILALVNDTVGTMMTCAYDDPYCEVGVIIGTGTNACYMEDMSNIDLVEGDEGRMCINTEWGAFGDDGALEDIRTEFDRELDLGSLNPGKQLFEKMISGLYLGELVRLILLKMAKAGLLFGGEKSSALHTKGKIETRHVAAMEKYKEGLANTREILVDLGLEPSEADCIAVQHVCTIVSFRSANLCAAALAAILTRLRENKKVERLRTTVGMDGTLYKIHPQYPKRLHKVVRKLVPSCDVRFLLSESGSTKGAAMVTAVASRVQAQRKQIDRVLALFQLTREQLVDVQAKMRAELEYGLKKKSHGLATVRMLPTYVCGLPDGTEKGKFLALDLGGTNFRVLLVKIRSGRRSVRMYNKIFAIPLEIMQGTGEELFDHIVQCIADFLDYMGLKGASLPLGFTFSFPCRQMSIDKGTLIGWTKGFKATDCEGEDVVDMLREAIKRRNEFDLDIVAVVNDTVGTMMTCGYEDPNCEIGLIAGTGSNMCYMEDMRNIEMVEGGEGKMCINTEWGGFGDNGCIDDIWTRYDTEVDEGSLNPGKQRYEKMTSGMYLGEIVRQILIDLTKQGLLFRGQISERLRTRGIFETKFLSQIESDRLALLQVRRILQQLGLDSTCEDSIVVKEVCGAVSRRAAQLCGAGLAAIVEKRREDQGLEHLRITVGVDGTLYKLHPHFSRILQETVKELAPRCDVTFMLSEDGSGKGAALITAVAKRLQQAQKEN

[6] = target: DNA damage-inducible transcript 3 protein (Mus musculus, UniProt P35639); format: functional, Cricetulus griseus
[7] = reduction of Shn3 3'UTR-driven luciferase in osteoblasts – cell-based, Clone20 osteoblasts, firefly luciferase, cherry-picked, dose response (AID 624132); format: functional;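 also: firefly luciferase luminescence from reporter carrying the Shn3 3'UTR in osteoblasts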
[8] = loss of viability in HepG2 cells – cell-based, CellTiter-Glo, cherry-picked, cytotoxicity control for Shn3 inhibitor project, dose response (AID 624134); format: functional
[9] = non-specific 3'UTR reporter inhibition in Clone20-Shn3RL – cell-based, Renilla luciferase, cherry-picked, counter-screen for Shn3 inhibitor project, dose response (AID 624133); format: functional
Paired box protein Pax-8 = Paired box protein Pax-8 (Homo sapiens, UniProt Q06710); test: PAX8 transcriptional activity inhibition in RMG-I – RMG-I cells, luciferase, cherry-pick, dose response (AID 687027); format: functional, cell-based;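 also: luciferase reporter driven by Pax8 target thyroperoxidase promoter measured by SteadyGlo luminescence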
Caspase-6 = target: T3, Caspase-6 (Homo sapiens, UniProt P55212); test: inhibition of CASP6 peptide cleavage – biochemical, VEID-R110 fluorescence, cherry-pick, dose response (AID 720632)
T3 sequence (P55212 whole entry): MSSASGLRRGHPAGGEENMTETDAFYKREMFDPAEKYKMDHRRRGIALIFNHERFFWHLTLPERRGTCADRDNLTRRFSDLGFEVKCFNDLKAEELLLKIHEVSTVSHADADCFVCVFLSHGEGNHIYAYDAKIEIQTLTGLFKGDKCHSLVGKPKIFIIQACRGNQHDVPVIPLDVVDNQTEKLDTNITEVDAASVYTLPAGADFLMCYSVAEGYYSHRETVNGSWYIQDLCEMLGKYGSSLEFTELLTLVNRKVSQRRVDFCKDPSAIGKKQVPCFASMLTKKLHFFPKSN

[10] = reduced cellular PGC1a acetyl-lysine signal – cell-based, cherry-picked samples, dose response (AID 720514); format: functional;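 also: potency may reflect raised or lowered acetylation signal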
[11] = target: Peroxisome proliferator-activated receptor gamma/Nuclear receptor coactivator 1 (Homo sapiens, UniProt P37231); test: TR-FRET dose response biochemical High Throughput Screening assay for agonists of the steroid receptor coactivator 1 (SRC-1) recruitment by the peroxisome proliferator-activated receptor gamma (PPAR gamma): non-selective agonists. [Related pubchem assays (depositor defined):AID1300, AID1808, AID504735, AID631]; format: protein assay
[12] = target: Peroxisome proliferator-activated receptor gamma/Nuclear receptor coactivator 3 (Homo sapiens, UniProt P37231); test: TR-FRET dose response biochemical High Throughput Screening assay for agonists of the steroid receptor coactivator 3 (SRC-3) recruitment by the peroxisome proliferator-activated receptor gamma (PPAR gamma): non-selective agonists. [Related pubchem assays: 1301 (Confirmation screen.), 1048 (Primary screen.)]; format: functional
[13] = target: Peroxisome proliferator-activated receptor gamma/Nuclear receptor coactivator 2 (Homo sapiens, UniProt P37231); test: TR-FRET dose response biochemical High Throughput Screening assay for agonists of the steroid receptor coactivator 2 (SRC-2) recruitment by the peroxisome proliferator-activated receptor gamma (PPAR gamma): non-selective agonists. [Related pubchem assays: 1297, 1032 ]; format: functional
[14] = target: Mitogen-activated protein kinase 10 (Homo sapiens, UniProt P53779); test: Dose response biochemical screening assay for inhibitors of c-Jun N-Terminal Kinase 3 (JNK3). [Related pubchem assays: 746 ]
Major prion protein = Major prion protein (Homo sapiens, UniProt P04156); format: functional, cell-based
[15] = target: T4, Heat shock factor protein 1 (Mus musculus, UniProt P38532); test: enhancement of HSF1-driven luciferase signal – cell-based, NIH3T3, luminescence, dose retest, confirmation (AID 435004); format: functional;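 also: stress induced by proteasome inhibitor MG132 added 30 min after compound; luciferase reporter driven by HSF1 response element in NIH3T3 cells; actives raise luminescence as potentiators of the MG132 stress response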
T4 sequence (P38532 whole entry): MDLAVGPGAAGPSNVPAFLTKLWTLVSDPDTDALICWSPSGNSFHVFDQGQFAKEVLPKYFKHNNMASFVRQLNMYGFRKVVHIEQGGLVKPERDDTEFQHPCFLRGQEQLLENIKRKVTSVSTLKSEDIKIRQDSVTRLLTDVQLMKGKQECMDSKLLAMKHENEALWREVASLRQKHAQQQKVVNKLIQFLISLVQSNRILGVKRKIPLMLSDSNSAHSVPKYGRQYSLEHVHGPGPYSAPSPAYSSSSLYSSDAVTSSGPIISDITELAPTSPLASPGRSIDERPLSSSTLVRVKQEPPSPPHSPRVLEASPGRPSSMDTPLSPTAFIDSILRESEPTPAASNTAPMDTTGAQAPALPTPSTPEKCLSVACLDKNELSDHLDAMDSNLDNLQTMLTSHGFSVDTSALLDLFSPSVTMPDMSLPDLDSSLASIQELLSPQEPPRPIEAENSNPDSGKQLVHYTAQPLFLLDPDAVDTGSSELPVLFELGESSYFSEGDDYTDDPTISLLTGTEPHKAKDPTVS

[16] = viability of uninfected HEp-2 cells – cell-based, HTS, cytotoxicity control for RSV inhibitor project, dose response (AID 2410); format: functional; conditions: human respiratory syncytial virus
[17] = viability of PTEN-deleted HCT116 cells – cell-based, HCT116 PTEN knockout, dose response (AID 1047); format: functional;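 also: HCT116 colon tumor cells with PTEN knocked out; cells exposed to compound for 60 hours before readout; potency for loss of cell viability measured by luminescence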
[18] = viability of HCT116 lacking mutant beta-catenin – cell-based, human colon tumor, dose response (AID 1045); format: functional;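 also: HCT116 colon tumor cells with beta catenin knocked out; cells exposed to compound for 60 hours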
Bcl-2-related protein A1 = target: T5, Bcl-2-related protein A1 (Mus musculus, UniProt Q07440); format: functional;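 also: confirmatory dose–response counterscreen on Bfl-1, used to check hits from a UBC13 polyubiquitin inhibitor campaign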
T5 sequence (Q07440 whole entry): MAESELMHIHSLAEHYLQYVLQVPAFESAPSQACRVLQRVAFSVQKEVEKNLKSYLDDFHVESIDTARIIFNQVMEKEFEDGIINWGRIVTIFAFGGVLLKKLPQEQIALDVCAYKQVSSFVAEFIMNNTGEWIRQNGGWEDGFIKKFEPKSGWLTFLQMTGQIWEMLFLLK

[19] = target: T6, Ubiquitin-conjugating enzyme E2 N (Homo sapiens, UniProt P61088); format: functional
T6 sequence (P61088 whole entry): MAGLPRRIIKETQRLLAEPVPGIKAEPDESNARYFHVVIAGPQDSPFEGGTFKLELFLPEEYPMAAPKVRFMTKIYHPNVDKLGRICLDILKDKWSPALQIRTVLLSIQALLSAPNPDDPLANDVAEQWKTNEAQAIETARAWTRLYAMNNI

[20] = target: T6, Ubiquitin-conjugating enzyme E2 N; format: functional; remark: listed apart in the source
[21] = target: T7, DNA repair protein RAD52 homolog (Homo sapiens, UniProt P43351); format: functional, biochemical
T7 sequence (P43351 whole entry): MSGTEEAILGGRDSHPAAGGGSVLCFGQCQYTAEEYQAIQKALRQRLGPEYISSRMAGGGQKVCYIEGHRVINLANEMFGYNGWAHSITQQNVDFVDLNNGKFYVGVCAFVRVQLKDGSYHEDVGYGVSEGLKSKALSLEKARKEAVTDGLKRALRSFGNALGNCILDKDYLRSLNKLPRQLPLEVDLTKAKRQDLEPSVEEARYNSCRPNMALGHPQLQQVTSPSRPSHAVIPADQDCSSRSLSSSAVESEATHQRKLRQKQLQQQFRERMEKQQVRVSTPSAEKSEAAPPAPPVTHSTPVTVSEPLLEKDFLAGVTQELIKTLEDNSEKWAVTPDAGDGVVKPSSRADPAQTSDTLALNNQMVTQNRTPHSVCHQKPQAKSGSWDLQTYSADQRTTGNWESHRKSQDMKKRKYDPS

HEK293 [22] = test: inhibition of NOD1-driven NF-kB reporter – cell-based, luminescence, uHTS, primary screen (AID 1578); format: functional; conditions: Homo sapiens
HEK293 [23] = test: cells; format: functional, cell-based; conditions: Homo sapiens
HEK293 [24] = test: cells; format: functional, cell-based; conditions: Homo sapiens; remark: listed apart in the source
HEK293 [25] = test: NOD2 signaling inhibitors in MDP-stimulated cells, cell-based, uHTS, luminescence (AID 2001); format: functional; conditions: Homo sapiens
[26] = target: Heat shock protein HSP 90-alpha (Homo sapiens, UniProt P07900); format: functional, organism-based

Compound: O=S(=O)(Nc1cc(Sc2nc[nH]n2)c(O)c2ccccc12)c1ccccc1
- IC50 [1]: 11.7 µM (active)
- IC50 [2]: 3.32 µM (active)
- IC50 [3]: > 100 µM (inactive)
- IC50 [4]: 21.1 µM (inactive)
- IC50 [5]: 3.16 µM (active)
- IC50 (Hexokinase HKDC1): 9.93 µM (active)
- Absolute IC50 (CHOP) [6]: 10 µM
- AC50 [7]: 7.55 µM (active)
- AC50 [8]: 26.1 µM (active)
- AC50 [9]: 12.4 µM (active)
- AC50 (Paired box protein Pax-8): 9.52 µM (active)
- AC50 (Caspase-6): 0.911 µM (active)
- AC50 [10]: 9.88 µM (active)

Compound: COc1ccc(Cl)cc1-c1nnc(S)o1
- EC50 [11]: 3.67 µM (active)
- EC50 [12]: > 79.4 µM (not active)
- EC50 [13]: 3.4 µM (active)
- IC50 [14]: 16.2 µM (not active)
- IC50 (Major prion protein): 2.08 µM (active)
- IC50 (cells): > 138 µM (inactive)

Compound: Cn1c(=O)cc(SCC(=O)N2CCOCC2)c2ccc(Cl)cc21
- EC50 [11]: > 79.4 µM (inactive)
- EC50 [12]: > 79.4 µM (not active)
- EC50 [13]: > 79.4 µM (not active)
- EC50 [15]: > 260 µM (inactive)

Compound: Cc1ccc(C)c(OCC(O)CN2CCN(CCN3C(=O)c4cccc5cccc(c45)C3=O)CC2)c1 (stereo not drawn)
- CC50 [16]: 15.8 µM (active)
- EC50 [17]: 6.21 µM (active)
- EC50 [18]: 3.71 µM (active)
- IC50 (Bcl-2-related protein A1): > 20 µM (inactive)
- IC50 [19]: 7.55 µM (active)
- IC50 [20]: 9.34 µM (active)
- AC50 [21]: 7.35 µM (active)

Compound: CCN(CC)S(=O)(=O)c1cccc(NC(=O)c2ccc(Br)cc2)c1
- EC50 (HEK293 [22]): 11.6 µM (active)
- IC50 (HEK293 [23]): 10.1 µM (active)
- IC50 (HEK293 [24]): 14.1 µM (active)
- IC50 (HEK293 [25]): 7.75 µM (active)
- AC50 [26]: 3.55 µM (active)

Compound: C[C@@H]1O[C@@H](O[C@H]2[C@H](Oc3cc(O)c4c(c3)O[C@H](c3ccc(O)cc3)CC4=O)O[C@H](CO)[C@@H](O)[C@@H]2O)[C@H](O)[C@H](O)[C@H]1O [NARINGIN]
- IC50 (Bcl-2-related protein A1): > 20 µM (inactive)
- IC50 [19]: 12.2 µM (active) and 8.7 µM (active)
- IC50 [20]: 5.77 µM (active) and 6.66 µM (active)
